In patent EP4129284B1, “SERTACONAZOL FOR PROVIDING A SPORISTATIC AND/OR SPORICIDAL EFFECT” (Dr. Pfleger Arzneimittel GmbH, priority 2021, dated 2023):

System: full skin models
Format: cell-based, human
Description: Additionally, the influence on the cell viability and the release of lactate dehydrogenase (LDH) was examined over the incubation time. Disruptions of the cell membranes can be measured by the release of the cytosolic enzyme LDH and be evaluated as a marker for cellular necrosis. As the biocompatibility of the material is determined by further cellular and molecular factors, the analysis of the cellular interleukin release allows the conclusion on e.g. pro-inflammatory effects of the substances, which would not be possible to be detected by sole cytotoxicity. Such interleukins are interleukins 1α, 6 or 8, which are involved in coordinating the cellular proliferation, cell migration and possible inflammatory processes. Such a method is described in, for example, Wiegand C, Hipler UC. Evaluation of biocompatibility and cytotoxicity using keratinocyte and fibroblast cultures. Skin Pharmacol Physiol 2009; 22:74-82; Wiegand C, Winter D, Hipler UC. Molecular-weight-dependent toxic effects of chitosans on the human keratinocyte cell line HaCaT. Skin Pharmacol Physiol. 2010;23(3):164-70.
The spore suspensions and the solutions of sertaconazol, ciclopiroxolamin and terbinafin were prepared as in Example 1, wherein the respective test concentrations were obtained by diluting these solutions in ultrapure water (WFI; Fresenius Kabi) instead of SGB (Merck). Full skin models were produced as previously described [Reddersen K, Wiegand C, Elsner P, Hipler UC. Three-dimensional human skin model infected with Staphylococcus aureus as a tool for evaluation of bioactivity and biocompatibility of antiseptics. Int J Antimicrob Agents. 2019; 54(3):283-291; Wiegand C, Fink S, Beier O, Horn K, Pfuch A, Schimanski A, Grünler B, Hipler UC, Elsner P. Dose- and Time-Dependent Cellular Effects of Cold Atmospheric Pressure Plasma Evaluated in 3D Skin Models. Skin Pharmacol Physiol. 2016;29(5):257-265].Particularly, normal human dermal fibroblasts (NHDF; Lot 1060702.1, Promocell) and normal human epidermal keratinocytes (NHEK; Lot 9100102, Promocell) were used. Fibroblasts were cultivated in Dulbecco's modified eagle medium (DMEM; Lot MC09049P, Amimed), with 2% foetal calf serum (Lot P160509; PAN), 5 ng/mL hFGF (Lot 0329586; novoprotein) and 5 µg/ml Insulin (Lot H07443P, AMIMED) at 37°C and a 5% CO2 atmosphere. Keratinocytes were cultivated in keratinocyte medium (KBM, Lot 446M063, Promocell) at 37°C and a 5% CO2 atmosphere. The cultivation was performed over 7 days in 75 cm^2 cell culture flasks (Greiner Bio-One). The cells were subsequently detached with Trypsin-EDTA (Lot 2091326; Gibco) and dissolved in the respective medium. For producing the dermis equivalent, fibroblasts were cultivated in 12-well inserts (Greiner bio-one) with DMEM (Lot MC09049P, Amimed) + 10% foetal calf serum (Lot P160509, PAN) + 1% Gentamycin (Lot 2027100, Gibco) + 150 µg/ml ascorbic acid (Lot BCBS1081V, Sigma) for 3 weeks at […] and 5 % CO2. The medium was changed all 2-3 days. Before seeding the keratinocytes for producing the […], the medium surrounding the insert was completely removed and the dermis upper layer was coated with fibronectin (50 µg/mL; Lot 435P078, Promocell). After 30 min of incubation of the dermis equivalent with fibronectin, the seeding of the keratinocytes was performed with 2 × 10^5 cells / insert in KBM (Lot 446M063, Promocell) + 5% FKS (Lot P160509, PAN) + 1% Gentamycin (Lot 2027100, Gibco). Subsequently, the skin models were incubated for 45 min in the incubator before the models were flooded with KBM + 5% FKS + 1% Gentamycin. The skin models were cultivated for 7 days by submersion in the medium with decreasing foetal calf serum concentration (5 %, 2 %, 0 %). The medium was changed all 2-3 days. After the cultivation by submersion, the skin models were further cultivated for 12 days at the air-medium interface (airlift cultivation). […]

## CCCCCCCCCCCCOS(=O)(=O)[O-].[Na+] [SDS]
  cell viability: approximately 20%
